Assay [1] has as its target GST-Syk Full Protein (human) (Homo sapiens, UniProt P43405). Description: Syk kinase inhibition test (HTRF method). In kind it is biochemical. To be noted: Tables 2-x, thiophene compounds B; read-out: sykHTRK ave IC50. The method, boiled down:
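HTRF read-out: after EDTA termination and 1 h with XL665-streptavidin and Eu-anti-phosphotyrosine, the 665/620 nm ratio was measured. The reaction ran 30 min at 20–25 °C with final 6.4 nM human GST-Syk, 250 nM biotinylated peptide, 100 μM ATP, pH 7.0 HEPES buffer, 2% DMSO.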
In general terms: In TR-FRET formats the signal depends on donor and acceptor labels being close together.

Assay [2] deals with cultured human mast cells. Description: Degranulation inhibition test using cultured human mast cells (IgE cross-linking, β-Hexosaminidase release). In kind it is cell-based. The settings on record: Mast cell; Tables 2-x, thiophene compounds B; cultured human mast cells; read-out: human degranulation ave. IC50. The method, boiled down:
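Degranulation was triggered by anti-hIgE (10 μg/mL final, 30 min, 37 °C) after a 10-min compound pretreatment (DMSO 0.1%) of cord-blood CD34+-derived mast cells primed 5 days with IL-4 and IgE. β-Hexosaminidase in supernatant was measured with p-nitrophenyl-GlcNAc substrate (A405), expressed against water-lysed total; IC50 (M).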

Broadly, the IC50 is the point on the concentration scale where inhibition reaches its midpoint. On to `CC(=O)c1ccnc(Nc2cccc(-c3ccc(C(C)=O)s3)n2)c1` [Compound B-83], for which the IC50 in assay [1] and in assay [2] was 100 to 1000 nM in each case.
Regarding `Cc1ccnc(Nc2cccc(-c3ccc(C(=O)N4CCNCC4)s3)n2)c1` [Compound B-84, {5-[6-(4-methylpyridin-2-ylamino)pyridin-2-yl]thiophen-2-yl}piperazin-1-ylmethanone], the IC50 in assay [1] was under 100 nM; in assay [2], 100 to 1000 nM.
As to `CC(=O)N1CCN(C(=O)c2ccc(-c3cccc(Nc4cc(C)ccn4)n3)s2)CC1` [Compound B-85], the IC50 in assay [1] and in assay [2] was 100 to 1000 nM each time.
In the case of `CC(=O)O/N=C(\C)c1ccc(-c2cccc(Nc3cc(C)ccn3)n2)s1` [Compound B-86], the IC50 in assay [1] and in assay [2] was 100 to 1000 nM throughout.
Regarding `CC(=O)c1ccc(-c2cccc(Nc3cc(C4=NC(C)(C)CO4)ccn3)n2)s1` [Compound B-87, 1-(5-{6-[4-(4,4-dimethyl-4,5-dihydrooxazol-2-yl)pyridin-2-ylamino]pyridin-2-yl}thiophen-2-yl)ethanone], the IC50 in assay [1] was under 100 nM; in assay [2] it was 100 to 1000 nM.
For `Cc1ccnc(Nc2cccc(-c3cc(C)c(C(=O)NC(C)(C)CO)s3)n2)c1` [Compound B-88] the same measures were 100 to 1000 nM and 100 to 1000 nM.
For the compound `CCc1ccc(-c2cccc(Nc3cc(C)ccn3)n2)s1` [Compound B-91], the IC50 was 100 to 1000 nM in assay [1] and over 1000 nM in assay [2].
As to `Cc1ccnc(Nc2cccc(-c3ccc(C(C)N)s3)n2)c1` (stereo not shown) [Compound B-92], the IC50 in assay [1] and in assay [2] was 100 to 1000 nM in each case.
Take `CC(=O)NC(C)c1ccc(-c2cccc(Nc3cc(C)ccn3)n2)s1` (stereo not shown) [Compound B-93]: the half-inhibitory concentration (IC50) in assay [1] and in assay [2] was 100 to 1000 nM in each case.
Turning to `OCc1ccnc(Nc2cccc(-c3cccs3)n2)c1` [Compound B-94], the IC50 in assay [1] and in assay [2] was 100 to 1000 nM throughout.
Regarding `Cc1ccnc(Nc2cccc(-c3ccc(-c4nnn[nH]4)s3)n2)c1` [Compound B-95], the results for the half-maximal inhibitory concentration (IC50) in assay [1] and in assay [2] were 100 to 1000 nM and over 1000 nM, respectively.
For `CC(=O)c1ccc(-c2cccc(Nc3cc(CO)ccn3)n2)s1` [Compound B-96], the figures for the IC50 in assay [1] and in assay [2] were 100 to 1000 nM and over 1000 nM, respectively.
For the compound `COC(=O)CCNC(=O)c1ccc(-c2cccc(Nc3cc(C)ccn3)n2)s1` [Compound B-97], the IC50 is 100 to 1000 nM in assay [1] and over 1000 nM in assay [2].
With `Cc1ccnc(Nc2cccc(-c3ccc(C(=O)NCCC(=O)O)s3)n2)c1` [Compound B-98], the IC50 was 100 to 1000 nM in assay [1] and over 1000 nM in assay [2].
On the same counts, the results for `Cc1ccnc(Nc2cccc(-c3ccc(C(=O)NCC(=O)O)s3)n2)c1` [Compound B-99] are 100 to 1000 nM and over 1000 nM.
For `Cc1ccnc(Nc2cccc(-c3ccc(C(=O)NC(C)(C)C(=O)O)s3)n2)c1` [Compound B-100], the IC50 in assay [1] is 100 to 1000 nM; in assay [2], over 1000 nM.
In the case of `Cc1ccnc(Nc2cccc(-c3ccc(C(=O)NC(C)(C)CC(=O)O)s3)n2)c1` [Compound B-101], the half-inhibitory concentration (IC50) in assay [1] was 100 to 1000 nM; in assay [2] it was over 1000 nM.
As for `Cc1ccnc(Nc2cccc(-c3ccc(C(=O)NCC(O)CO)s3)n2)c1` (stereo not shown) [Compound B-102], the IC50 in assay [1] was 100 to 1000 nM; in assay [2], over 1000 nM.
Consider `Cc1ccnc(Nc2cccc(-c3ccc(CNCCC(=O)O)s3)n2)c1` [Compound B-103], for which the IC50 in assay [1] is 100 to 1000 nM; in assay [2] it was over 1000 nM.
In the case of `Cc1ccnc(Nc2cccc(-c3ccc(C(=O)NC4CC4)s3)n2)c1` [Compound B-104], the IC50 in assay [1] is 100 to 1000 nM; in assay [2], over 1000 nM.
